Data set [1] deals with NCI-H929 cells. The data set can be described thus: BCMA expression by flow cytometry after GSI incubation. Conditions: 1 μM DAPT, 24 hrs, vs without. Type of data set: cell-based.
Data set [2] concerns Molp-8 cells. The description is as above. It is filed as cell-based. As to conditions: 1 μM DAPT, 24 hrs, vs without.
For data set [3], the system named is Molp-8 cells. In words: FcγRIII signaling surrogate assay (Promega ADCC reporter bioassay, CD16A-Jurkat effector cells). Type of data set: cell-based. Conditions: antibody dose titrations +/- GSI (DAPT), 6:1 effector-to-target ratio, overnight. As to the method: (§1) NCI-H929 or Molp-8 MM target cells were incubated with and without 1 μM DAPT for 24 hrs. […] FcγRIII signaling was determined using a surrogate assay as manufacturer describes (Promega ADCC reporter bioassay cat #G9302). Cells were bound with antibody dose titrations+/−GSI for 30 minutes at 37° C. CD16A-Jurkat effector cells were then added with a 6:1 effector-to-target cell ratio. After an overnight incubation, the assay was developed with Bio-Glo and relative luminescence units (RLU) were measured on an Envision plate reader. […] Enhanced signaling is the first step in the primary mechanism of action of SEA-BCMA. This signaling can translate to increased anti-MM cell lysis through ADCC.

In data set [4] the test system is NCI-H929 cells. The data set is described as above. Conditions: antibody dose titrations +/- GSI (DAPT), 6:1 effector-to-target ratio, overnight. It is filed as cell-based. The protocol: as §1
For data set [5], the system named is Multiple myeloma cells. The data set can be described thus: BCMA expression after nirogacestat incubation. Type of data set: cell-based. As to conditions: 0.2 μM nirogacestat, 24 hours, vs without. The text has this:
(§2) These pre-clinical data supported the combination of SEA-BCMA with nirogacestat in clinical studies.

A further data set deals with U266. The data set can be described thus: BCMA expression by flow cytometry after Nirogacestat incubation. Conditions: 0.2 μM Nirogacestat, 24 hrs. Type of data set: cell-based.
In data set [6] the test system is Multiple myeloma cells. The data set can be described thus: ADCC with NK effector cells enriched from normal donor PBMC. It is filed as cell-based. Conditions: nirogacestat treated multiple myeloma cells combined with NK effector cells.
Text: as §2

In another data set the test system is Molp-8 MM target cells. The data set can be described thus: ADCC 51Cr release assay with donor NK cells. Type of data set: cell-based. Conditions: SEA-BCMA titrations, 0.2 μM Nirogacestat vs without, NK:target 10:1, 4h, FcγRIII V/V donor. As to the method:
Whether the enhanced FcγRIII signaling translated to increased lysis of MM target cells by SEA-BCMA was determined. Molp-8 MM target cells were incubated with and without 0.2 μM Nirogacestat (purchased from SelleckChem) for 24 hrs. Cells were then Na2 [^51Cr] O4 labeled and added to titrations of SEA-BCMA, or isotype antibody control. Effector cells, NK cells enriched from normal donor PBMC, were added at an effector-to-target cell ratio of 10:1 (50,000:5000). Donor NK cells were of the high affinity FcγRIII V/V genotype. The combination of antibodies, NK cells and target cells were incubated for 4h at 37° C. with and without Nirogacestat. The radioactivity released into the culture supernatant of lysed target cells was then measured and the percent specific cell lysis calculated. […] This is the primary of mechanism of action of SEA-BCMA and translates to specific enhanced anti-MM lysis. It is expected that this will translate to improvements in anti-MM activity in the clinic when SEA-BCMA is combined with GSIs.

Data set [7] relates to BCMA-expressing NCI-H929 cells. The data set can be described thus: NF-κB p65 activity ELISA of nuclear extract (TransAM NFκB Chemi p65). Type of data set: cell-based. The protocol:
The secondary mechanism of action of SEA-BCMA is to block BCMA proliferative cell signaling. Increased BCMA from GSI treatment is expected to induce increased BCMA signaling. Therefore, the block of this enhanced signaling by SEA-BCMA was tested. BCMA-expressing NCI-H929 cells were serum-starved with and without 0.2 μM Nirogacestat (purchased from SelleckChem) for 16 hrs. Cells were then bound with and without 20 μg/mL SEA-BCMA and incubated with and without 1 μg/ml recombinant human APRIL (R&D Systems) for 20 minutes at 37° C. in the presence or absence of 0.2 μM Nirogacestat. 1 μg of nuclear extract was assayed in duplicate for NF-κB p65 activity by ELISA (TransAM NFκB Chemi p65, Active Motif).
For orientation: An ELISA detects its analyte on a solid surface through an enzyme-linked reagent.

For data set [8] the following is noted: 100 mg BID dose; cited from earlier work.
A further data set has as its system patients. As to conditions: cited from earlier work.
In the next data set the target is FcγRIII (Homo sapiens, UniProt P08637). In words: FcγRIII binding affinity versus fucosylated anti-BCMA antibodies. As to conditions: in comparison to fucosylated anti-BCMA antibodies.
Setting [9] is: patients receiving nirogacestat.

Several values for one entry are separate records, joined by “and”; a condition that tells them apart may be missing. Equal entries are not always repeated.

Sequence of FcγRIII (P08637 17-254): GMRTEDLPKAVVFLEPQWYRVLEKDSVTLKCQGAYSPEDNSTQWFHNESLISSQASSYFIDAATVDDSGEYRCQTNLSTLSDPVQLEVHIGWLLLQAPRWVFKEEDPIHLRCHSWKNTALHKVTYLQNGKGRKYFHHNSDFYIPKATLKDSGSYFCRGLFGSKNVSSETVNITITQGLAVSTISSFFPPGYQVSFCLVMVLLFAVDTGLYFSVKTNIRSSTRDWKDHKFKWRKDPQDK
Method for patients with RRMM: This study evaluated the safety and antitumor activity of SEA-BCMA in patients with RRMM.
The monotherapy dose-escalation portion of the trial was conducted in approximately 25 patients.
Enrollment in this study occurred on a cohort-by-cohort basis. Multiple cohorts were treated at each dose level, with a maximum of 4 patients treated per cohort. Decisions on dose escalation and subsequent cohort size were made in consultation with the safety monitoring committee (SMC) after completion of each cohort. […] In addition, as a precaution, for the first 2 patients in the study there was a 72-hour observation period before the next patient can be dosed. At dose levels above Dose Level 1, a 24-hour observation period was required after the first patient received their first dose of SEA-BCMA, prior to dosing subsequent patients at that dose level. […] Patients who were considered not evaluable for DLT during Cycle 1 were replaced. […] The MTD or optimal dose was estimated based on data from all patients across all evaluated doses.
SEA-BCMA was initially administered once every 2 weeks (q2wk) in 4-week cycles at the planned doses shown in Table 2; a dosing interval of every 4 weeks (q4wk) was explored.
To further characterize the safety and antitumor activity of SEA-BCMA, an expansion cohort of up to approximately 40 patients were enrolled.
The DLT-evaluation period was the first cycle of treatment. […] In the event of a Grade 3 IRR in ≥20% of patients (i.e., 2 or more in the first 10 patients), all subsequent patients will require premedication and/or modification of infusion approach per the recommendation of the SMC.

For `C[C@H](NC(=O)Cc1cc(F)cc(F)c1)C(=O)N[C@H](C(=O)OC(C)(C)C)c1ccccc1` [DAPT], the BCMA expression result in the data set on NCI-H929 cells [1] and in the data set on Molp-8 cells [2] was “increased BCMA expression” throughout. In addition, the FcγRIII signaling result with Molp-8 cells [3] and in the data set on NCI-H929 cells [4] was “increased FcγRIII signaling” throughout.
`CCC[C@H](N[C@H]1CCc2cc(F)cc(F)c2C1)C(=O)Nc1cn(C(C)(C)CNCC(C)(C)C)cn1` [nirogacestat, (S)-2-(((S)-6,8-difluoro-1,2,3,4-tetrahydronaphthalen-2-yl)amino)-N-(1-(2-methyl-1-(neopentylamino)propan-2-yl)-1H-imidazol-4-yl)pentanamide]: the BCMA expression entry with Multiple myeloma cells [5] was “increased BCMA expression”. Further, the BCMA expression result with U266 is “increased BCMA expression”. Further, in the data set with Multiple myeloma cells [6], the ADCC entry is reported as “increased ADCC”. Further, the “ADCC (percent specific cell lysis)” value in the data set on Molp-8 MM target cells is “Increased ADCC”. Besides, the “NF-κB p65 signaling (RLU)” value in [7] (0.2 μM Nirogacestat 16 hrs serum-starved, +/- 1 μg/ml APRIL 20 minutes) was “increased NF-κB signaling”. For the same compound, the Cmin at steady-state in [8] was 232 ng/mL and 471 nM. Also, in the data set with patients (setting [9]), the Events of diarrhea entry is “commonly reported” and the “Events of skin rash” value was “reported”. Also, in the data set with patients (phase 2 study in desmoid patients conducted by the NCI (O'Sullivan Coyne, 2018)), the Follicular cysts entry was “observed”.
As to “SEA-BCMA: non-fucosylated monoclonal anti-BCMA antibody, heavy chain SEQ ID NO: 13, light chain SEQ ID NO: 15”, the “Block of NF-κB signaling increased by Nirogacestat” value in data set [7] (20 μg/mL SEA-BCMA, 0.2 μM Nirogacestat, +/- 1 μg/ml APRIL) is listed as “partially blocked”. Also, the FcγRIII binding affinity result with FcγRIII is listed as “enhanced”. In addition, the “Delayed-onset infusion-related reactions (IRRs)” value in the data set with patients with RRMM (dose escalation cohort) was “no instances”. In addition, the “Safety profile at high doses” value in the data set with patients with RRMM (high doses, e.g. 800 mg or 1600 mg per dose, initial results) is reported as “tolerable safety profile”. In the data set with patients with RRMM (human, in vivo), the “MTD in dose escalation” value is reported as “without exceeding MTD”.

(Values after patent US20240343819A1, “METHODS OF TREATING MULTIPLE MYELOMA” (Seagen Inc., priority 2021, published 2024).)
